Values joined by “and” are separate entries in the source; they are usually repeats but may differ in a detail not shown here. Identical values can stand only once. Toxic doses and inconclusive results are not listed. Rule as the data show it: active = T/C of 150% or more; inactive = T/C below 125%.
System: L1210 leukemia ip in BDF1 mice, survival T/C
Experiment: NCI In Vivo Anticancer Drug Screen. Data for tumor model L1210 Leukemia (intraperitoneal) in B6D2F1 (BDF1) mice
Conditions: endpoint: mean survival time, higher = longer survival
How it was run: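 Survival endpoint. Drug-treated group vs vehicle group, expressed as T divided by C. Tumor passaged by transplantation.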

[1] = dose: 100.0 mg/kg/injection, schedule: Q04DX003 (ip), vehicle: saline
[2] = dose: 400.0 mg/kg/injection, schedule: Q01DX009 (ip), vehicle: other
[3] = dose: 100.0 mg/kg/injection, schedule: Q01DX009 (ip), vehicle: saline
[4] = dose: 200.0 mg/kg/injection, schedule: Q01DX009 (ip), vehicle: saline
[5] = dose: 25.0 mg/kg/injection, schedule: Q04DX003 (ip), vehicle: saline
[6] = dose: 50.0 mg/kg/injection, schedule: Q04DX003 (ip), vehicle: saline
[7] = dose: 25.0 mg/kg/injection, schedule: Q01DX009 (ip), vehicle: saline
[8] = dose: 50.0 mg/kg/injection, schedule: Q01DX001 (ip), vehicle: saline
[9] = dose: 50.0 mg/kg/injection, schedule: Q01DX009 (ip), vehicle: saline
[10] = dose: 100.0 mg/kg/injection, schedule: Q01DX001 (ip), vehicle: saline
[11] = dose: 200.0 mg/kg/injection, schedule: Q01DX001 (ip), vehicle: saline
[12] = dose: 400.0 mg/kg/injection, schedule: Q01DX001 (ip), vehicle: saline

Measured: T/C

CC(C)c1c[nH]c(=O)[nH]c1=O
inactive: dose: 100.0 mg/kg/injection, schedule: Q01DX009 (ip), vehicle: other 102 % of control | [1] 91 % of control | dose: 200.0 mg/kg/injection, schedule: Q01DX009 (ip), vehicle: other 96 % of control | dose: 200.0 mg/kg/injection, schedule: Q04DX003 (ip), vehicle: saline 93 % of control | [2] 102 % of control | dose: 400.0 mg/kg/injection, schedule: Q04DX003 (ip), vehicle: saline 91 % of control

O=C1CCCC23C4CCCC4C12C1CCCC13 (centres undefined)
inactive: dose: 100.0 mg/kg/injection, schedule: Q04DX002 (ip), vehicle: gum acacia 100 % of control | dose: 200.0 mg/kg/injection, schedule: Q04DX002 (ip), vehicle: gum acacia 97 % of control | dose: 400.0 mg/kg/injection, schedule: Q04DX002 (ip), vehicle: gum acacia 100 % of control

NC(CC(O)c1ccccc1)c1ccccc1 (centres undefined)
inactive: dose: 75.0 mg/kg/injection, schedule: Q01DX001 (ip), vehicle: carboxymethylcellulose (CMC) 96 % of control

CN(C)c1nc(N)nc2c1ncn2C1OC(CO)CC1O (centres undefined)
inactive: dose: 100.0 mg/kg/injection, schedule: Q01DX001 (ip), vehicle: carboxymethylcellulose (CMC) 120 % of control | dose: 200.0 mg/kg/injection, schedule: Q01DX001 (ip), vehicle: carboxymethylcellulose (CMC) 98 % of control | dose: 400.0 mg/kg/injection, schedule: Q01DX001 (ip), vehicle: carboxymethylcellulose (CMC) 101 % of control

C[CH2][Ge]1([CH2]C)[CH2]CC2(C[CH2]1)CN(CCCN(C)C)CN2
inactive: dose: 100.0 mg/kg/injection, schedule: Q04DX002 (ip), vehicle: saline 103 % of control

O=C(COc1ccc(Cl)c(Cl)c1)NCc1ccc[n+](CC(=O)Nc2ccc(S(=O)(=O)F)cc2)c1
inactive: [3] 100 % of control | [4] 94 % of control

Cc1ccc2ccc3ccc4ccccc4c3c2c1
inactive: dose: 50.0 mg/kg/injection, schedule: Q01DX001 (ip), vehicle: Klucel (hydroxypropylcellulose) (HPC) 101 % of control | dose: 100.0 mg/kg/injection, schedule: Q01DX001 (ip), vehicle: Klucel (hydroxypropylcellulose) (HPC) 95 % of control | dose: 200.0 mg/kg/injection, schedule: Q01DX001 (ip), vehicle: Klucel (hydroxypropylcellulose) (HPC) 101 % of control

c1ccc([P+](Cc2cccc(C[P+](c3ccccc3)(c3ccccc3)c3ccccc3)c2)(c2ccccc2)c2ccccc2)cc1
inactive: dose: 1.2 mg/kg/injection, schedule: Q01DX001 (ip), vehicle: acetone 107 % of control | dose: 2.5 mg/kg/injection, schedule: Q01DX001 (ip), vehicle: acetone 99 % of control

O=C(COc1ccc(Cl)c(Cl)c1)NCc1ccc[n+](Cc2ccc(Cl)c(S(=O)(=O)F)c2)c1
inactive: [5] 114 % of control | [6] 118 % of control | [1] 100 % of control and 112 % of control

C#CC1(NC(=S)Nc2ccc(C)cc2)CCCCC1
inactive: dose: 100.0 mg/kg/injection, schedule: Q01DX009 (ip), vehicle: carboxymethylcellulose (CMC) 100 % of control and 92 % of control | dose: 200.0 mg/kg/injection, schedule: Q01DX009 (ip), vehicle: carboxymethylcellulose (CMC) 95 % of control and 100 % of control | dose: 400.0 mg/kg/injection, schedule: Q01DX009 (ip), vehicle: carboxymethylcellulose (CMC) 106 % of control and 113 % of control

COc1ccc2c(c1)c(C)cc[n+]2C
inactive: dose: 12.5 mg/kg/injection, schedule: Q01DX001 (ip), vehicle: saline 108 % of control | dose: 12.5 mg/kg/injection, schedule: Q01DX009 (ip), vehicle: saline 109 % of control | dose: 25.0 mg/kg/injection, schedule: Q01DX001 (ip), vehicle: saline 110 % of control | [7] 107 % of control | [8] 110 % of control | [9] 124 % of control

O=C(O)/C(=C\c1cccnc1)NC(=O)c1ccccc1
inactive: dose: 100.0 mg/kg/injection, schedule: Q04DX002 (ip), vehicle: Klucel (hydroxypropylcellulose) (HPC) 90 % of control | dose: 200.0 mg/kg/injection, schedule: Q04DX002 (ip), vehicle: Klucel (hydroxypropylcellulose) (HPC) 101 % of control | dose: 400.0 mg/kg/injection, schedule: Q04DX002 (ip), vehicle: Klucel (hydroxypropylcellulose) (HPC) 96 % of control

COC(=O)c1cc(C)cc([N+](=O)[O-])c1C
inactive: [8] 91 % of control | [10] 111 % of control | [11] 100 % of control | [12] 102 % of control

O=c1[nH]cnc2n[nH]nc12
inactive: dose: 176.0 mg/kg/injection, schedule: Q01DX009 (ip), vehicle: other 113 % of control | dose: 264.0 mg/kg/injection, schedule: Q01DX009 (ip), vehicle: other 117 % of control | [2] 124 % of control

Cc1ccc(S(=O)(=O)N(CC(=O)O)c2c[nH]c(C(=O)O)c2)cc1
inactive: dose: 100.0 mg/kg/injection, schedule: Q01DX009 (ip), vehicle: acetone 92 % of control | dose: 200.0 mg/kg/injection, schedule: Q01DX009 (ip), vehicle: acetone 95 % of control | dose: 400.0 mg/kg/injection, schedule: Q01DX009 (ip), vehicle: acetone 88 % of control

O=C(O)C(O)C(O)C(=O)O.[Cu+2] (centres undefined)
inactive: dose: 5.0 mg/kg/injection, schedule: Q01DX001 (ip), vehicle: saline 95 % of control | dose: 10.0 mg/kg/injection, schedule: Q01DX001 (ip), vehicle: saline 89 % of control | dose: 20.0 mg/kg/injection, schedule: Q01DX001 (ip), vehicle: saline 93 % of control | dose: 40.0 mg/kg/injection, schedule: Q01DX001 (ip), vehicle: saline 101 % of control

C/C(CCCCl)=N/N=C(N)N
inactive: dose: 12.5 mg/kg/injection, schedule: Q04DX003 (ip), vehicle: saline 100 % of control | dose: 18.75 mg/kg/injection, schedule: Q01DX009 (ip), vehicle: saline with Tween-80 96 % of control | [5] 110 % of control | dose: 37.5 mg/kg/injection, schedule: Q01DX009 (ip), vehicle: saline with Tween-80 90 % of control | [6] 103 % of control | dose: 75.0 mg/kg/injection, schedule: Q01DX009 (ip), vehicle: saline with Tween-80 94 % of control | dose: 75.0 mg/kg/injection, schedule: Q04DX003 (ip), vehicle: acetone 95 % of control | dose: 110.0 mg/kg/injection, schedule: Q01DX009 (ip), vehicle: saline with Tween-80 98 % of control

COc1ccc(C)cc1NC(=O)Sc1ccc(Cl)cc1
inactive: dose: 50.0 mg/kg/injection, schedule: Q01DX009 (ip), vehicle: saline with Tween-80 117 % of control | dose: 100.0 mg/kg/injection, schedule: Q01DX009 (ip), vehicle: saline with Tween-80 95 % of control

CSc1ccccc1C=Nc1ccccc1O
inactive: dose: 100.0 mg/kg/injection, schedule: Q01DX001 (ip), vehicle: saline with Tween-80 101 % of control | dose: 200.0 mg/kg/injection, schedule: Q01DX001 (ip), vehicle: saline with Tween-80 98 % of control | dose: 400.0 mg/kg/injection, schedule: Q01DX001 (ip), vehicle: saline with Tween-80 103 % of control

O=C(O)c1cc([N+](=O)[O-])cc([N+](=O)[O-])c1O
inactive: dose: 100.0 mg/kg/injection, schedule: Q04DX002 (ip), vehicle: saline with Tween-80 113 % of control | dose: 200.0 mg/kg/injection, schedule: Q04DX002 (ip), vehicle: saline with Tween-80 104 % of control

CC1(C)SC2C(NC(=O)C(C(=O)O)c3ccccc3)C(=O)N2C1C(=O)O (centres undefined)
inactive: [7] 103 % of control | [8] 107 % of control | [9] 103 % of control | [10] 95 % of control | [3] 100 % of control and 101 % of control | [11] 102 % of control | [4] 105 % of control | [12] 101 % of control | dose: 400.0 mg/kg/injection, schedule: Q01DX009 (ip), vehicle: saline 100 % of control
